Source: article PMC11845761, “Intestinal human carboxylesterase 2 (CES2) expression rescues drug metabolism and most metabolic syndrome phenotypes in global Ces2 cluster knockout mice” (Acta Pharmacologica Sinica, 2024)
Read-outs that look alike come from different tables or passages of the source.

Experiments:
[1] = Plasma pharmacokinetics of capecitabine and its metabolites after oral capecitabine in CES2-modified mice; type: in vivo, mouse; conditions: oral capecitabine 500 mg/kg; for AUC0-2h / AUC0-2h ratio (metabolite/capecitabine) / Cmax / Tmax / AUC(0-t): plasma; for AUC(0-t): read-out: AUC0-2h
Method: (§1) For capecitabine 2-h experiments, 6–7 female mice received oral capecitabine (500 mg/kg, 10 μL/g), and tail vein blood samples were collected at 0.125, 0.25, 0.5 and 1 h after drug administration. For the vinorelbine 4-h experiment, 6-7 male mice received vinorelbine intravenously (10 mg/kg, 5 μL/g) or orally (10 mg/kg, 10 μL/g) using a blunt-ended needle. Tail vein blood samples were collected at 0.125, 0.25, 0.5, 1 and 2 h after drug administration. […] At the last time point in each experiment (2 or 4 h), mice were anesthetized with 5% isoflurane and blood was collected by cardiac puncture. […] Plasma was isolated from the blood by centrifugation at 9000 × g for 6 min at 4 °C, and the plasma fraction was collected and stored at −30 °C until analysis.
(§2) Concentrations of capecitabine (and its metabolites) and vinorelbine (and its metabolite) in mouse plasma samples and organ homogenates were determined using two independent validated high-performance liquid chromatography-tandem mass spectrometry assays.
(§3) Pharmacokinetic parameters were calculated by non-compartmental methods using the PK solver software. […] Differences were considered statistically significant when P < 0.05. All data are presented as mean ± SD.

[2] = Tissue concentrations of capecitabine and its metabolites 2 h after oral capecitabine in CES2-modified mice; type: in vivo, mouse; conditions: oral capecitabine 500 mg/kg; for concentration at 2 h: female, mouse, oral, 500 mg/kg
Method: as §1, §2, §3

Question: What does the source list for `NCC(F)C(=O)O` (stereo not shown) [FBAL]?
Answer: AUC0-2h ([1]; female Ces2^–/– mice): 1833 ± 504 ng·h/mL; AUC0-2h ratio (metabolite/capecitabine) ([1]; female Ces2^–/– mice): 0.07 ± 0.04; Cmax ([1]; female Ces2^–/– mice): 1684 ± 597 ng/mL; Tmax ([1]; female Ces2^–/– mice): 120 ± 0 min; AUC0-2h ([1]; female Ces2^–/–A mice): 2910 ± 671 ng·h/mL; AUC0-2h ratio (metabolite/capecitabine) ([1]; female Ces2^–/–A mice): 0.12 ± 0.06; Cmax ([1]; female Ces2^–/–A mice): 2923 ± 760 ng/mL; Tmax ([1]; female Ces2^–/–A mice): 108 ± 24 min; AUC0-2h ([1]; female Ces2^–/–V mice): 2874 ± 659 ng·h/mL; AUC0-2h ratio (metabolite/capecitabine) ([1]; female Ces2^–/–V mice): 0.20 ± 0.09; Cmax ([1]; female Ces2^–/–V mice): 2606 ± 698 ng/mL; Tmax ([1]; female Ces2^–/–V mice): 120 ± 0 min; AUC0-2h ([1]; female wild-type mice): 1966 ± 158 ng·h/mL; AUC0-2h ratio (metabolite/capecitabine) ([1]; female wild-type mice): 0.35 ± 0.08; Cmax ([1]; female wild-type mice): 1755 ± 308 ng/mL; Tmax ([1]; female wild-type mice): 120 ± 0 min; CSI (small intestine tissue concentration) ([2]; female Ces2^–/– mice): 1239 ± 335 ng/g; Ccolon (colon concentration) ([2]; female Ces2^–/– mice): 1355 ± 281 ng/g; Cliver (liver concentration) ([2]; female Ces2^–/– mice): 59839 ± 11722 ng/g; Colon concentration ratio (metabolite/capecitabine) ([2]; female Ces2^–/– mice): 0.12 ± 0.05; Liver concentration ratio (metabolite/capecitabine) ([2]; female Ces2^–/– mice): 4.2 ± 2.7; Small intestine concentration ratio (metabolite/capecitabine) ([2]; female Ces2^–/– mice): 0.08 ± 0.05; CSI (small intestine tissue concentration) ([2]; female Ces2^–/–A mice): 2193 ± 960 ng/g; Ccolon (colon concentration) ([2]; female Ces2^–/–A mice): 2105 ± 600 ng/g; Cliver (liver concentration) ([2]; female Ces2^–/–A mice): 102959 ± 17203 ng/g; Colon concentration ratio (metabolite/capecitabine) ([2]; female Ces2^–/–A mice): 0.24 ± 0.02; Liver concentration ratio (metabolite/capecitabine) ([2]; female Ces2^–/–A mice): 25 ± 11; Small intestine concentration ratio (metabolite/capecitabine) ([2]; female Ces2^–/–A mice): 0.15 ± 0.04; CSI (small intestine tissue concentration) ([2]; female Ces2^–/–V mice): 1830 ± 655 ng/g; Ccolon (colon concentration) ([2]; female Ces2^–/–V mice): 2080 ± 446 ng/g; Cliver (liver concentration) ([2]; female Ces2^–/–V mice): 77125 ± 16534 ng/g; Colon concentration ratio (metabolite/capecitabine) ([2]; female Ces2^–/–V mice): 0.60 ± 0.36^###^; Liver concentration ratio (metabolite/capecitabine) ([2]; female Ces2^–/–V mice): 18 ± 16; Small intestine concentration ratio (metabolite/capecitabine) ([2]; female Ces2^–/–V mice): 1.5 ± 2.0^###^^^; CSI (small intestine tissue concentration) ([2]; female wild-type mice): 1174 ± 174 ng/g; Ccolon (colon concentration) ([2]; female wild-type mice): 1322 ± 249 ng/g; Cliver (liver concentration) ([2]; female wild-type mice): 55840 ± 13861 ng/g; Colon concentration ratio (metabolite/capecitabine) ([2]; female wild-type mice): 0.62 ± 0.16; Liver concentration ratio (metabolite/capecitabine) ([2]; female wild-type mice): 48 ± 19; Small intestine concentration ratio (metabolite/capecitabine) ([2]; female wild-type mice): 0.86 ± 0.38

Question: With `CCCCCOC(=O)Nc1nc(=O)n([C@@H]2O[C@H](C)[C@@H](O)[C@H]2O)cc1F` [Capecitabine, reference compound] as the compound, how does the “plasma AUC0-2h, fold greater in Ces2^–/– than in wild-type mice” value ([1]; female mice) read?
Answer: The value was 5.3 fold.

Question: What about the “plasma AUC0-2h, lower in Ces2^–/–V than in Ces2^–/– mice” value ([1]; female mice) of the same compound?
Answer: The value was 44%.

Question: What about the AUC(0-t) ([1]; female, Ces2^–/– (Ces2 cluster knockout), mouse, po, 500 mg/kg, female Ces2^–/– mice) of the same compound?
Answer: Its AUC(0-t) is 31300 ± 16600 ng·h/mL.

Question: And the Cmax ([1]; female, Ces2^–/– (Ces2 cluster knockout), mouse, po, 500 mg/kg, female Ces2^–/– mice, read-out: Cmax)?
Answer: Its Cmax is 42600 ± 17800 ng/mL.

Question: And the Tmax ([1]; female, Ces2^–/– (Ces2 cluster knockout), mouse, po, 500 mg/kg, female Ces2^–/– mice, read-out: Tmax)?
Answer: Its Tmax is 12.6 ± 3.6 min.

Question: And the AUC(0-t) ([1]; female, mouse, po, 500 mg/kg, female Ces2^–/–A mice)?
Answer: The AUC(0-t) was 31500 ± 19200 ng·h/mL.

Question: And the Cmax ([1]; female, mouse, po, 500 mg/kg, female Ces2^–/–A mice, read-out: Cmax)?
Answer: The Cmax was 47000 ± 34100 ng/mL.

Question: And the Tmax ([1]; female, mouse, po, 500 mg/kg, female Ces2^–/–A mice, read-out: Tmax)?
Answer: Its Tmax is 10.2 ± 4.2 min.

Question: And the AUC(0-t) ([1]; female, mouse, po, 500 mg/kg, female Ces2^–/–V mice)?
Answer: Its AUC(0-t) is 17500 ± 9710 ng·h/mL.

Question: What about the Cmax ([1]; female, mouse, po, 500 mg/kg, female Ces2^–/–V mice, read-out: Cmax) of the same compound?
Answer: The Cmax was 23400 ± 14100 ng/mL.

Question: And the Tmax ([1]; female, mouse, po, 500 mg/kg, female Ces2^–/–V mice, read-out: Tmax)?
Answer: Its Tmax is 9.6 ± 3.6 min.

Question: And the AUC(0-t) ([1]; female, mouse, po, 500 mg/kg, female wild-type mice)?
Answer: The AUC(0-t) was 5850 ± 1380 ng·h/mL.

Question: And the Cmax ([1]; female, mouse, po, 500 mg/kg, female wild-type mice, read-out: Cmax)?
Answer: Its Cmax is 12200 ± 3800 ng/mL.

Question: What about the Tmax ([1]; female, mouse, po, 500 mg/kg, female wild-type mice, read-out: Tmax) of the same compound?
Answer: The Tmax was 11.4 ± 4.2 min.

Question: What about the “liver concentration, fold greater in Ces2^–/– than in wild-type mice” value ([2]; female mice) of the same compound?
Answer: The value was 13.8 fold.

Question: And the “liver concentration, reduction in Ces2^–/–A compared with Ces2^–/– mice” value ([2]; female mice)?
Answer: Its value is 74.2%.

Question: And the “liver concentration, reduction in Ces2^–/–V compared with Ces2^–/– mice” value ([2]; female mice)?
Answer: Its value is 63.5%.

Question: What about the “small intestine concentration, fold higher in Ces2^-/- than in wild-type mice” value ([2]; female mice) of the same compound?
Answer: Its value is 10.6 fold.

Question: And the concentration at 2 h ([2]; Ces2^-/-, liver, female Ces2^–/– mice, read-out: Cliver (liver concentration))?
Answer: The concentration at 2 h was 18000 ± 8740 ng/g.

Question: What about the concentration at 2 h ([2]; Ces2^-/-, small intestine, female Ces2^–/– mice, read-out: CSI (small intestine tissue concentration)) of the same compound?
Answer: Its concentration at 2 h is 17200 ± 6550 ng/g.

Question: What about the concentration at 2 h ([2]; Ces2^-/-A, liver, female Ces2^–/–A mice, read-out: Cliver (liver concentration)) of the same compound?
Answer: The concentration at 2 h was 4650 ± 1760 ng/g.

Question: And the concentration at 2 h ([2]; Ces2^-/-A, small intestine tissue, female Ces2^–/–A mice, read-out: CSI (small intestine tissue concentration))?
Answer: The concentration at 2 h was 15200 ± 6020 ng/g.

Question: And the concentration at 2 h ([2]; Ces2^-/-V, liver, female Ces2^–/–V mice, read-out: Cliver (liver concentration))?
Answer: Its concentration at 2 h is 6570 ± 3220 ng/g.

Question: What about the concentration at 2 h ([2]; Ces2^-/-V, small intestine, female Ces2^–/–V mice, read-out: CSI (small intestine tissue concentration)) of the same compound?
Answer: The concentration at 2 h was 2410 ± 1190 ng/g.

Question: What about the concentration at 2 h ([2]; Ces2^–/– (Ces2 cluster knockout), small intestine, female Ces2^–/– mice, read-out: CSI (small intestine tissue concentration)) of the same compound?
Answer: Its concentration at 2 h is 17200 ng/g.

Question: What about the concentration at 2 h ([2]; colon, female Ces2^–/– mice, read-out: Ccolon (colon concentration)) of the same compound?
Answer: The concentration at 2 h was 14300 ± 9020 ng/g.

Question: What about the concentration at 2 h ([2]; colon, female Ces2^–/–A mice, read-out: Ccolon (colon concentration)) of the same compound?
Answer: The concentration at 2 h was 8780 ± 1630 ng/g.

Question: What about the concentration at 2 h ([2]; colon, female Ces2^–/–V mice, read-out: Ccolon (colon concentration)) of the same compound?
Answer: The concentration at 2 h was 4970 ± 2980 ng/g.

Question: And the concentration at 2 h ([2]; colon, female wild-type mice, read-out: Ccolon (colon concentration))?
Answer: Its concentration at 2 h is 2250 ± 712 ng/g.

Question: And the concentration at 2 h ([2]; liver, female wild-type mice, read-out: Cliver (liver concentration))?
Answer: Its concentration at 2 h is 1300 ± 522 ng/g.

Question: What about the concentration at 2 h ([2]; small intestine contents, female Ces2^–/– mice, read-out: CSIC (small intestine contents concentration)) of the same compound?
Answer: Its concentration at 2 h is 97200 ± 37200 ng/g.

Question: And the concentration at 2 h ([2]; small intestine contents, female Ces2^–/–A mice, read-out: CSIC (small intestine contents concentration))?
Answer: Its concentration at 2 h is 88500 ± 25100 ng/g.

Question: And the concentration at 2 h ([2]; small intestine contents, female Ces2^–/–V mice, read-out: CSIC (small intestine contents concentration))?
Answer: The concentration at 2 h was 49700 ± 45900 ng/g.

Question: What about the concentration at 2 h ([2]; small intestine contents, female wild-type mice, read-out: CSIC (small intestine contents concentration)) of the same compound?
Answer: Its concentration at 2 h is 26500 ± 16300 ng/g.

Question: What about the concentration at 2 h ([2]; small intestine tissue, female wild-type mice, read-out: CSI (small intestine tissue concentration)) of the same compound?
Answer: The concentration at 2 h was 1630 ± 865 ng/g.

Question: What about the concentration at 2 h ([2]; small intestine, female Ces2^–/–V mice, read-out: CSI (small intestine tissue concentration)) of the same compound?
Answer: Its concentration at 2 h is 2410 ± 1190 ng/g.
